± gives the expanded uncertainty stated by the source.
Assay: activity coefficient (dimensionless); of the first substance listed, at infinite dilution; xn = mol fraction of the nth substance listed
Conditions: Liquid, Chromatography, x1 = 0

Row | SMILES | activity coefficient (308.15 K) | activity coefficient (318.15 K) | activity coefficient (328.15 K)
1 | CCO [ethanol] + CCCCCCCCCCCCCC[P+](CCCCCC)(CCCCCC)CCCCCC.F[B-](F)(F)F | 5.59 ± 0.38 | 5.36 ± 0.36 | 5.14 ± 0.35
2 | C#CCCCCCC [1-octyne] + CCCCCCCCCCCCCC[P+](CCCCCC)(CCCCCC)CCCCCC.[Cl-] | 0.494 ± 0.038 | 0.514 ± 0.038 | 0.526 ± 0.039
3 | C1CCCC1 [cyclopentane] + CCCCCCCCCCCCCC[P+](CCCCCC)(CCCCCC)CCCCCC.[Cl-] | 0.579 ± 0.041 | 0.576 ± 0.041 | 0.574 ± 0.041
4 | C#CCCCCCC [1-octyne] + CCCCCCCCCCCCCC[P+](CCCCCC)(CCCCCC)CCCCCC.F[B-](F)(F)F | 0.387 ± 0.034 | 0.406 ± 0.034 | 0.417 ± 0.035
5 | CCCCCC [hexane] + CCCCCCCCCCCCCC[P+](CCCCCC)(CCCCCC)CCCCCC.O=S(=O)([N-]S(=O)(=O)C(F)(F)F)C(F)(F)F | 0.766 ± 0.05 | 0.751 ± 0.049 | 0.742 ± 0.049
6 | C=CCCCCC [1-heptene] + CCCCCCCCCCCCCC[P+](CCCCCC)(CCCCCC)CCCCCC.[Cl-] | 0.523 ± 0.039 | 0.515 ± 0.038 | 0.511 ± 0.038
7 | CCCCCC [hexane] + CCCCCCCCCCCCCC[P+](CCCCCC)(CCCCCC)CCCCCC.F[B-](F)(F)F | 0.968 ± 0.061 | 0.942 ± 0.059 | 0.925 ± 0.058
8 | C1CCCCC1 [cyclohexane] + CCCCCCCCCCCCCC[P+](CCCCCC)(CCCCCC)CCCCCC.[Cl-] | 0.631 ± 0.044 | 0.627 ± 0.043 | 0.625 ± 0.043
9 | C=CCCCCC [1-heptene] + CCCCCCCCCCCCCC[P+](CCCCCC)(CCCCCC)CCCCCC.F[B-](F)(F)F | 0.663 ± 0.045 | 0.647 ± 0.044 | 0.637 ± 0.044
10 | C1CCCC1 [cyclopentane] + CCCCCCCCCCCCCC[P+](CCCCCC)(CCCCCC)CCCCCC.F[B-](F)(F)F | 0.638 ± 0.044 | 0.63 ± 0.044 | 0.625 ± 0.043
11 | CCO [ethanol] + CCCCCCCCCCCCCC[P+](CCCCCC)(CCCCCC)CCCCCC.[Cl-] | 0.74 ± 0.049 | 0.737 ± 0.049 | 0.735 ± 0.049
12 | C1CCCCCC1 [cycloheptane] + CCCCCCCCCCCCCC[P+](CCCCCC)(CCCCCC)CCCCCC.[Cl-] | 0.861 ± 0.055 | 0.753 ± 0.05 | 0.763 ± 0.05
13 | C1CCCCCC1 [cycloheptane] + CCCCCCCCCCCCCC[P+](CCCCCC)(CCCCCC)CCCCCC.O=S(=O)([N-]S(=O)(=O)C(F)(F)F)C(F)(F)F | 0.787 ± 0.051 | 0.779 ± 0.051 | 0.774 ± 0.051
14 | C#CCCCC [1-hexyne] + CCCCCCCCCCCCCC[P+](CCCCCC)(CCCCCC)CCCCCC.F[B-](F)(F)F | 0.345 ± 0.032 | 0.358 ± 0.033 | 0.366 ± 0.033
15 | CCCCCCCC [octane] + CCCCCCCCCCCCCC[P+](CCCCCC)(CCCCCC)CCCCCC.[Cl-] | 0.847 ± 0.054 | 0.831 ± 0.054 | 0.821 ± 0.053
16 | c1ccccc1 [benzene] + CCCCCCCCCCCCCC[P+](CCCCCC)(CCCCCC)CCCCCC.O=S(=O)([N-]S(=O)(=O)C(F)(F)F)C(F)(F)F | 0.406 ± 0.034 | 0.403 ± 0.034 | 0.402 ± 0.034
17 | CCCCCCCC [octane] + CCCCCCCCCCCCCC[P+](CCCCCC)(CCCCCC)CCCCCC.O=S(=O)([N-]S(=O)(=O)C(F)(F)F)C(F)(F)F | 0.843 ± 0.054 | 0.825 ± 0.053 | 0.814 ± 0.053
18 | c1ccccc1 [benzene] + CCCCCCCCCCCCCC[P+](CCCCCC)(CCCCCC)CCCCCC.[Cl-] | 0.408 ± 0.034 | 0.403 ± 0.034 | 0.4 ± 0.034
19 | C=CCCCCC [1-heptene] + CCCCCCCCCCCCCC[P+](CCCCCC)(CCCCCC)CCCCCC.O=S(=O)([N-]S(=O)(=O)C(F)(F)F)C(F)(F)F | 0.558 ± 0.04 | 0.549 ± 0.04 | 0.543 ± 0.04
20 | CO [methanol] + CCCCCCCCCCCCCC[P+](CCCCCC)(CCCCCC)CCCCCC.O=S(=O)([N-]S(=O)(=O)C(F)(F)F)C(F)(F)F | 0.942 ± 0.059 | 0.958 ± 0.06 | 0.989 ± 0.062
21 | C1CCCCCC1 [cycloheptane] + CCCCCCCCCCCCCC[P+](CCCCCC)(CCCCCC)CCCCCC.F[B-](F)(F)F | 1 ± 0.063 | 0.979 ± 0.061 | 0.965 ± 0.061
22 | CCCCCCC [heptane] + CCCCCCCCCCCCCC[P+](CCCCCC)(CCCCCC)CCCCCC.O=S(=O)([N-]S(=O)(=O)C(F)(F)F)C(F)(F)F | 0.783 ± 0.051 | 0.769 ± 0.05 | 0.761 ± 0.05
23 | CCCCC [pentane] + CCCCCCCCCCCCCC[P+](CCCCCC)(CCCCCC)CCCCCC.O=S(=O)([N-]S(=O)(=O)C(F)(F)F)C(F)(F)F | 0.611 ± 0.043 | 0.602 ± 0.042 | 0.597 ± 0.042
24 | C=CCCCC [hex-1-ene] + CCCCCCCCCCCCCC[P+](CCCCCC)(CCCCCC)CCCCCC.[Cl-] | 0.477 ± 0.037 | 0.471 ± 0.037 | 0.468 ± 0.037

— the NIST ThermoML archive (doi:10.1021/je0602925)
